Data taken from US6827926B2, “Metallotetrapyrrolic photosensitizing agents for use in photodynamic therapy” (Miravant Pharmaceuticals, Inc., priority 2001, dated 2004).

Key:
[1] = tested on: normal uninjured rat carotid arteries (medial and adventitial cell populations); assay: In vivo rat carotid artery acellularity after PDT; set-up: species or system Sprague Dawley rats; details: for Max % rat Artery Accelularity: Table 3, drug dose 1 μMol, 50 J/cm^2, 3 days post treatment
In short: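 Metallated photosensitizers light-activated in normal uninjured rat left common carotid via balloon catheter introduced through femoral arteriotomy under isoflurane; excitation 575 nm (Ga, Zn, Al, Sn) or 532 nm (Pt). Arteries harvested 3 days post-treatment, H&E-stained; medial and adventitial cell density assessed by light microscopy.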

[2] = tested on: balloon-injured pig coronary arteries; assay: Pig coronary artery balloon injury model, 14 days (inhibition of neointima / intimal hyperplasia); assay type: in vivo; details: for average inhibition of intimal hyperplasia over the length of the injured artery: pig coronary arteries; for Intimal hyperplasia Inhibition (14 days) Av. over injury: pig coronary artery balloon injury, drug dose 3 mg/Kg, 532 nm light, 55 J, 125 J/cm2, 250 mW
Procedure: (§1) Those photosensitizers showing excellent efficacy in the rat carotid artery model were evaluated in more detail in the pig coronary artery model (Waksman, R., Rodriguez, J. C., Robinson, K. A., Cipolla, G. D., Crocker, I. R., Scott, N. A. King, S. B., Wilcox, J. N., Circulation, 96, 1944-1952, 1997). If vascular PDT is to be proposed as a therapy to prevent restenosis in humans due to angioplasty or stenting, then it must first be shown to be effective in a large animal model such as the swine. Porcine coronary arteries are very similar to human coronary arteries with regard to size, neointima formation, and thrombosis in response to injury.
The swine model has been utilized in the preclinical evaluation of interventions to reduce restenosis for several reasons. Chief among these reasons are the similarities in (i) size and anatomy of the swine arteries to human arteries, that permits instrumentation and evaluation of results via catheters; and (ii) histopathological characteristics of the proliferative response following artery injury similar to that seen in humans. Furthermore, large animals including the swine have proven to be more predictive of success in reducing restenosis in humans than have small animal models. An extensive literature search (e.g., Weiner, B. H., et al. Circulation. 72:1081-1086,1985; Schwartz, R. S., et al. Circulation. 82:2190-2200, 1990; Vascular Brachytherapy, Veenendaal, The Netherlands:Nucletron B.V. 1996 pp.1-382) supports the notion that restenosis after balloon injury in porcine coronaries is the best model when compared to restenosis in humans. Therapies investigated in other species still must be confirmed in the porcine model. Several articles reviewing the relevant animal models for the study of restenosis have concluded that although imperfect, as are all animal models, the porcine model is still the best from the standpoint of similarity to human disease, ease of use, and cost (e.g., Schwartz, R. S., Murphy, J. G., Edwards, W. D., Camrud, A. R., Vlietstra, R. E., and Holmes, D. R. Restenosis after balloon angioplasty: A practical proliferative model in the porcine coronary arteries. Circulation. 82:2190-2200, 1990; Karas, S. P., Gravanis, M. B., Santoian, E. C., Robinson, K. A., and King, S. B., 3d Coronary intimal proliferation after balloon injury and stenting in swine: an animal model of restenosis. J.Am.Coll. Cardiology 20:467-474, 1992).
(§2) Photosensitizers were administered systemically (at doses typically 2-3.5 mg/kg body weight, in a soybean phospholipid formulation) as a slow bolus injection in the ear vein. Drug treatments were followed (1-4 hr later) by endovascular light treatment (50-250 J/cm^2 fluence and 100-300 mW/cm^2 irradiance) in uninjured coronary (50-250 J/cm^2 fluence and 100-300 mW/cm^2 irradiance) and iliac (50-350 J/cm^2 fluence and 100-450 mW/cm^2 irradiance) arteries. In another set of experiments, animals also received balloon injuries in the coronary arteries at the time of PDT treatment. Angioplasty injuries in 2 coronary arteries were performed. Vital signs and cardiovascular parameters such as ECG, HR, BP, were monitored together with arterio-angiograms for measurements of vessel patency.
For longer term efficacy experiments (14 days after the PDT experiments) animals were sacrificed and serial sections of all relevant arteries (coronaries only) were harvested in 10% formalin and processed for histological assessment. Representative arterial segments underwent parafin embedding and sectioning for Hemoxylin & Eosin and/or elastin staining. Slides were prepared for microscopy histological analysis of the (i) acute cellular responses and (ii) inhibition of neointima formation following treatment. Once prepared, the slides were analyzed via microscopy for histomorphometry and effects such as medial wall acellularity, arterial wall and surrounding tissue cell death and proliferation. […]

[3] = tested on: uninjured coronary and iliac arteries; assay: Pig artery acute PDT experiments in uninjured arteries (acellularity); assay type: in vivo; details: 532 nm light, 55 J, 125 J/cm2, 250 mW
Procedure: as §1, §2
For acute experiments done in uninjured arteries, 3-5 days after the PDT experiments, animals were sacrificed and serial sections of all relevant arteries (iliacs, & coronaries) were harvested in 10% formalin and processed for histological assessment. Results of PDT at this timepoint give us an insight into the selective cellular effects of PDT on VSMC and myofibroblasts which are known to be maximally proliferating and migrating at this same time in response to a vessel wall injury—such as an angioplasty.
For longer term efficacy experiments (14 days after the PDT experiments) animals were sacrificed and serial sections of all relevant arteries (coronaries only) were harvested in 10% formalin and processed for histological assessment. Representative arterial segments underwent parafin embedding and sectioning for Hemoxylin & Eosin and/or elastin staining. Slides were prepared for microscopy histological analysis of the (i) acute cellular responses and (ii) inhibition of neointima formation following treatment. Once prepared, the slides were analyzed via microscopy for histomorphometry and effects such as medial wall acellularity, arterial wall and surrounding tissue cell death and proliferation. […] The magnitude of the inhibition was greater than any other photosensitizer drug currently used by other groups in PDT (clinically or pre-clinically), and was on the order of that only previously seen with radiation in this model. Inhibition data is averaged over the injury length within the artery.

For COC(=O)CCC1=C(C)c2cc3[n-]c(cc4nc(cc5[n-]c(cc1n2)c(CCC(=O)OC)c5C)C=C4C)cc3C.[Cl-].[Ga+3] [Example 4, Gallium Chloride Deuteroporphyrin Dimethyl Ester], the “Max % rat Artery Accelularity” value [1] was 95%, the “average inhibition of intimal hyperplasia over the length of the injured artery” value [2] was > 75% and the “Intimal hyperplasia Inhibition (14 days) Av. over injury” value [2] was >70%. For the same compound, the “Acellularity (%) (3 days)” value ([3]; drug dose 1 mg/Kg) was 50%, the “Acellularity (%) (3 days)” value ([3]; drug dose 2 mg/Kg) was 70% and the “Acellularity (%) (3 days)” value ([3]; drug dose 3 mg/Kg) was 95%.

In the case of CCC1=C(C)C2=[N+]3C1=Cc1c(C)c(CC)c4[n]1[Ga-2]31([Cl])[n]3c(c(C)c(CCC(=O)NC)c3=CC3=[N+]1C(=C4)C(C)=C3CCC(=O)NC)=C2 [Example 121, Gallium Chloride Mesoporphyrin N-methyl Amide], the “Max % rat Artery Accelularity” value [1] is reported as 60%, the “average inhibition of intimal hyperplasia over the length of the injured artery” value ([2]; 3 mg/Kg, light fluence 125 J/cm^2) is reported as > 75% and the “Intimal hyperplasia Inhibition (14 days) Av. over injury” value [2] is reported as >70%. For the same compound, the “Acellularity (%) (3 days)” value ([3]; drug dose 1 mg/Kg) was 45%, the “Acellularity (%) (3 days)” value ([3]; drug dose 2 mg/Kg) was 75% and the “Acellularity (%) (3 days)” value ([3]; drug dose 3 mg/Kg) was 95%.

With “Gallium Chloride Mesoporphyrin Dimethyl Ester [Example 1]” the “Max % rat Artery Accelularity” value [1] was 95%, the “acellularity (rat artery)” value ([1]; text b234, 1 μmol/Kg (printed 1 mol/Kg for 57)) was 95% and the “average inhibition of intimal hyperplasia over the length of the injured artery” value [2] was > 80%. The “Intimal hyperplasia Inhibition (14 days) Av. over injury” value [2] was >80%, the “Acellularity (%) (3 days)” value ([3]; drug dose 1 mg/Kg) was 50% and the “Acellularity (%) (3 days)” value ([3]; drug dose 2 mg/Kg) was 70%. The “Acellularity (%) (3 days)” value ([3]; drug dose 3 mg/Kg) was 100%.
